Experiment [1] has as its system primary mammalian motor neurons. Description: neuroprotective effect on primary mammalian motor neurons in culture under stress. Conditions: 0.5 and 5 μM applied 1 hr before stressors (H2O2 and staurosporin), 24 hours, MAP-2 positive cells counted. It is filed as cell-based. Here is the method: Neuroprotection is measured as a % of cells counted in each experimental condition to the number of control, untreated cells run at the same time on the same plate. NPA was applied 1 hr before stressors (H2O2 and staurosporin), at 2 concentrations: 0.5 and 5 μM. Stressors were applied for 24 hours, then plates were fixed and stained for MAP-2 and then positive cells counted.

Experiment [2] relates to islet-1:GFP+ motor neurons in the ventral spinal cord. Description: secondary screen paradigm: motor neuron differentiation in islet-1:GFP transgenic embryos. It is filed as in vivo, zebrafish. The protocol:
(§1) We use two transgenic lines, in which expression of green fluorescent protein (GFP) is controlled by the motor neuron specific promoters HB9 or islet-1 in the spinal cord. In the HB9:GFP line (Flanagan-Steet et al., 2005), primary motor neurons and their ventral axons are labelled at 24 hours post-fertilisation (hpf). Aberrations in the highly stereotypic pattern of primary motor axons are easily detectable in a stereo-microscope (FIG. 8). […] Thus, acceleration or delay of motor neuron differentiation can readily be assessed under a stereo-microscope.
(§2) Different small molecule libraries may be used for screening. […] Primary screen: Compounds are applied to HB9:GFP embryos in 24 well plates at a concentration of 10-25 μM in accordance with other studies (Zon and Peterson, 2005) at 6 hpf (mid-gastrula) and trajectories of motor axons analysed at 24 hpf. […] Missing, stunted, excessively branched or supernumerary motor axons (FIG. 8), which are easily detectable in a fluorescence-equipped stereo-microscope, are classified as hits. Apparently toxic substances will be re-evaluated at lower concentrations. […] The read-out of this screen is whether the rostro-caudal band of late born secondary motor neurons in the ventral spinal cord is complete. […] To do this, 20 embryos per treatment will be dechorionated, anesthetised (tricaine 1:10000) and analysed under a stereomicroscope. […]

Experiment [3] relates to motor axons in HB9:GFP embryos. Description: primary screen paradigm: motor axons in HB9:GFP transgenic embryos. The class given is in vivo, zebrafish. Conditions: 24 hpf HB9:GFP embryos, compound applied at 6 hpf. Here is the method:
as §1, §2

The subject of experiment [4] is HB9:GFP+ motor neurons in the lesioned adult spinal cord. The experiment in a line: adult validation paradigm: motor neuron regeneration after spinal cord lesion. The class given is in vivo, zebrafish. Conditions: 2 weeks post-lesion; for number of newly generated motor neurons in HB9:GFP transgenic animals: within 1.5 mm surrounding the lesion site. Here is the method:
As described previously (Becker et al., 1997), fish were anesthetized by immersion in 0.033% aminobenzoic acid ethylmethylester (MS222; Sigma, St. Louis, Mo.) in PBS for 5 min. A longitudinal incision was made at the side of the fish to expose the vertebral column. The spinal cord was completely transected under visual control 4 mm caudal to the brainstem-spinal cord junction.
Stereological counts were performed in confocal image stacks of three randomly selected vibratome sections from the region up to 750 μm rostral to the lesion site and three sections from the region up to 750 μm caudal to the lesion site. Cell numbers were then calculated for the entire 1.5 mm surrounding the lesion site.
Different small molecule libraries may be used for screening. It is possible to screen the Spectrum Collection of FDA approved drugs and natural products and other bioactive components (2000 compounds), the Diversity Set of the US National Cancer Institute (1990 compounds), the Tocriscreen library (1120 compounds) and the Prestwick Chemical Library (1120 compounds). Due to some overlap between libraries, we will test approximately 5600 individual compounds. All of these libraries are commercially available. Primary screen: Compounds are applied to HB9:GFP embryos in 24 well plates at a concentration of 10-25 μM in accordance with other studies (Zon and Peterson, 2005) at 6 hpf (mid-gastrula) and trajectories of motor axons analysed at 24 hpf. Analysing 2-3 embryos per compound is sufficient, because the pattern of motor axon outgrowth is highly stereotypic, making this a robust and quick screening tool. No anaesthesia or other manipulations are necessary to observe primary motor axons. Missing, stunted, excessively branched or supernumerary motor axons (FIG. 8), which are easily detectable in a fluorescence-equipped stereo-microscope, are classified as hits. Apparently toxic substances will be re-evaluated at lower concentrations. Specificity of the effect will be established in dose-response experiments for each hit. Secondary screen: To exclude non-specific effects on motor axons due to gross alterations of the embryos occurring during early drug application, and to more directly analyse incipient differentiation of motor neurons, we use the islet-1:GFP fish. Hit compounds from the primary screen are applied at 24 hpf, when early embryogenesis is complete, but before islet-1:GFP+ motor neurons have been born. The read-out of this screen is whether the rostro-caudal band of late born secondary motor neurons in the ventral spinal cord is complete. […] To do this, 20 embryos per treatment will be dechorionated, anesthetised (tricaine 1:10000) and analysed under a stereomicroscope. […]

Entries after “also recorded” stand apart in the source; their conditions may differ.

Take `CCCN1CCc2cccc3c2[C@H]1Cc1ccc(O)c(O)c1-3.Cl` [NPA, R(−)-Propylnorapomorphine]: the “neuroprotection: number of neurons surviving stress conditions (% of untreated control cells)” value in experiment [1] was “significantly increases the number of mammalian neurons surviving stress conditions”.

As to `CC1=C2C[C@H]3[C@@H](CC=C4C[C@@H](O)CC[C@@]43C)[C@@H]2CC[C@]12O[C@@H]1C[C@H](C)CN[C@H]1[C@H]2C` [cyclopamine], in experiment [2] (72 hpf, controls 82%, p<0.00001), the “embryos with a complete band of differentiated motor neurons” value is reported as 11%. In experiment [2] (islet-1:GFP embryos, compound applied at 24 hpf, read at 48 hpf and 72 hpf), the “effect on motor neuron differentiation (in words)” value is recorded as “blocks their differentiation; also recorded: retarded motor neuron differentiation”. Further, the “absence of motor axons” value in experiment [3] is recorded as “complete”. The “reduction in the number of newly generated motor neurons” value in experiment [4] (compared to tomatidine-injected animals) is 50%. In addition, the “number of newly generated motor neurons in HB9:GFP transgenic animals” value in experiment [4] (intraperitoneal injection) is 377±45.7 cells.

For `C[C@H]1CC[C@]2(NC1)O[C@H]1C[C@H]3[C@@H]4CC[C@H]5C[C@@H](O)CC[C@]5(C)[C@H]4CC[C@]3(C)[C@H]1[C@@H]2C` [tomatidine], the “number of large motor neurons” value in experiment [4] (intraperitoneal injection, p=0.0008) is 20±4.2. In addition, the “number of newly generated motor neurons in HB9:GFP transgenic animals” value in experiment [4] (intraperitoneal injection) was 747±42.2 cells.
